Experimental data from ChEMBL document CHEMBL1909046, “DrugMatrix in vitro pharmacology data”.

Key:
[1] = target: T1, Alpha-1B adrenergic receptor (Rattus norvegicus, UniProt P15823); assay: DRUGMATRIX: Alpha-1B adrenergic receptor radioligand binding (ligand: prazosin); format: cell membranes, Wistar, Liver, Membrane; conditions: Not Active = under 50% inhibition at 10 µM
T1 sequence (P15823 whole entry): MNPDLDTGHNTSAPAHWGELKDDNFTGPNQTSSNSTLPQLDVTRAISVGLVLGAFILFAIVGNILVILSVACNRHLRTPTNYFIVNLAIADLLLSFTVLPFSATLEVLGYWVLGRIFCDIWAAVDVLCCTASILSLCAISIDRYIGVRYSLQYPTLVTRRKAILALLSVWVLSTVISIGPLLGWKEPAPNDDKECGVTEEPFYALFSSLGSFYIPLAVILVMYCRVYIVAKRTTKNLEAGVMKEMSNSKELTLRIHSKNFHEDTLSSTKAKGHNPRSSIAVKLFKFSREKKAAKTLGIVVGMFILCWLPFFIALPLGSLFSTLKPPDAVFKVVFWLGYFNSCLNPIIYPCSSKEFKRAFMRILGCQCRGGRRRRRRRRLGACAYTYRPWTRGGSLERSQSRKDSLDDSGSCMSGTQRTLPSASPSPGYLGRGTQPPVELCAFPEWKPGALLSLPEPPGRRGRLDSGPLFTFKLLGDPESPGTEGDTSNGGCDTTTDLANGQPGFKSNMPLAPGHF

Endothelin-1 receptor = target: T2, Endothelin-1 receptor (Homo sapiens, UniProt P25101); format: cell membranes, Membrane; conditions: cho-k1; also: in other assays of this panel Not Active means under 50% inhibition at 10 µM
T2 sequence (P25101 whole entry): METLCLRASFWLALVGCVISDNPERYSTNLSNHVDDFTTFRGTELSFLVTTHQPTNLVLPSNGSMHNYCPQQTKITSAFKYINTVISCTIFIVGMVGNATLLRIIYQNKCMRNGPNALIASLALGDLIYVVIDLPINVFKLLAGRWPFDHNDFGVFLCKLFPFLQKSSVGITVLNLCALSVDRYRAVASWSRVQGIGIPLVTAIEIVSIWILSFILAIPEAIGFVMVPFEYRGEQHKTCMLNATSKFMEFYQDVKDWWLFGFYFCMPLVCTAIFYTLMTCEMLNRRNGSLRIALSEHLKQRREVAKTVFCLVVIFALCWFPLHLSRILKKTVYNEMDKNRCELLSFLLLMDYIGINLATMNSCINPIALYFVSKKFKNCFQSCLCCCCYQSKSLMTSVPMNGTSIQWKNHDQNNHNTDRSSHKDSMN

Cytochrome P450 2E1 = Cytochrome P450 2E1 (Homo sapiens, UniProt P05181); conditions: bti-tn-5b1-4; also: in other assays of this panel Not Active means under 50% inhibition at 10 µM
Cytochrome P450 2E1, sequence (P05181 whole entry): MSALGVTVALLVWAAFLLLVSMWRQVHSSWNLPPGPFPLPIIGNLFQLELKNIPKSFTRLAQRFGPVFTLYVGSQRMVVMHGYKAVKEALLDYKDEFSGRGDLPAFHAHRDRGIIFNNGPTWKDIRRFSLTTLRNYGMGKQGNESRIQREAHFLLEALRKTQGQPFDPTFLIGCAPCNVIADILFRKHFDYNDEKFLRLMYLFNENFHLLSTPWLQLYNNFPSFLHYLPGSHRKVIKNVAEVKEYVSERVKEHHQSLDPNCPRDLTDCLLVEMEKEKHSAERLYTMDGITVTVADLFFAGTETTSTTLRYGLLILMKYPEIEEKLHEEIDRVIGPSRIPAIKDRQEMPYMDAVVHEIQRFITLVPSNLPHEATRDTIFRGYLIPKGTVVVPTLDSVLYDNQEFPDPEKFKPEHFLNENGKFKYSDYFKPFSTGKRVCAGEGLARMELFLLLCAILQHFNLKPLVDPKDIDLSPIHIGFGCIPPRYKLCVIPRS

[2] = target: T3, 5-hydroxytryptamine receptor 2C (Homo sapiens, UniProt P28335); assay: DRUGMATRIX: Serotonin (5-Hydroxytryptamine) 5-HT2C radioligand binding (ligand: [3H] Mesulergine); format: cell membranes, CHO-K1, Membrane; conditions: Not Active = under 50% inhibition at 10 µM; for Ki: read-out: Ki
T3 sequence (P28335 whole entry): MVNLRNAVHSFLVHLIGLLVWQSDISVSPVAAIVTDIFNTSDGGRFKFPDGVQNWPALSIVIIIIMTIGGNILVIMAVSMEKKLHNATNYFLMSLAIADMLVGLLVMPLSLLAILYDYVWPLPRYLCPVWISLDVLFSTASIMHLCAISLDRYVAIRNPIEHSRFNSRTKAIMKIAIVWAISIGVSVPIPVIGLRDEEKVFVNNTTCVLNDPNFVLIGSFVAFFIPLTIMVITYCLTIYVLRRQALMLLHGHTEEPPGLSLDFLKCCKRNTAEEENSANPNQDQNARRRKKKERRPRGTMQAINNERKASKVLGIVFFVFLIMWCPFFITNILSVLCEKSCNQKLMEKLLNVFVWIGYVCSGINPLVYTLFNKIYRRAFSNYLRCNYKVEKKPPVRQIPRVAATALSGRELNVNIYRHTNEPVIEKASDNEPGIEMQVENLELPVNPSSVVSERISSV

[3] = target: T4, Vasoactive intestinal polypeptide receptor 1 (Homo sapiens, UniProt P32241); format: cell membranes, Membrane; conditions: ht-29; also: in other assays of this panel Not Active means under 50% inhibition at 10 µM
T4 sequence (P32241 whole entry): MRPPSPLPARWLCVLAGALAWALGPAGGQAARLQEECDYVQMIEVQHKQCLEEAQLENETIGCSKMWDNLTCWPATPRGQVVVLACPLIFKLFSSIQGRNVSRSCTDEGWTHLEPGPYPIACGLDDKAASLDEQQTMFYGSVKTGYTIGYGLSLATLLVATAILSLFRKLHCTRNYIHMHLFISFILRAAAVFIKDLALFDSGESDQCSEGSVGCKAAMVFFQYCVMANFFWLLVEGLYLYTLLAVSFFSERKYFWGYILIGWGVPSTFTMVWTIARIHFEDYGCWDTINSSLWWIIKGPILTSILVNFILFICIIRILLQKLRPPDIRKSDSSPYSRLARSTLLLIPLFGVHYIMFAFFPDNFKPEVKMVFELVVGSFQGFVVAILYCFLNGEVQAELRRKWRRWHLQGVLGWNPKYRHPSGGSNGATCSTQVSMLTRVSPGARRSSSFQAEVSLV

[4] = DRUGMATRIX: Phosphodiesterase PDE3 enzyme inhibition (substrate: [3H]cAMP + cAMP); format: tissue-based, Homo sapiens; conditions: platelet; Not Active = under 50% inhibition at 10 µM

COC(=O)Nc1nc2ccc(Sc3ccccc3)cc2[nH]1 [FENBENDAZOLE]
IC50 [1]: Not Active | IC50 (Endothelin-1 receptor): Not Active | IC50 (Cytochrome P450 2E1): Not Active | Ki (Cytochrome P450 2E1): Not Active | IC50 ([2]; cho-k1): Not Active | IC50 [3]: Not Active | IC50 [4]: Not Active | Ki [4]: Not Active

Cc1c(N)nc([C@H](CC(N)=O)NC[C@H](N)C(N)=O)nc1C(=O)N[C@H](C(=O)N[C@H](C)[C@@H](O)[C@H](C)C(=O)N[C@H](C(=O)NCCc1nc(-c2nc(C(=O)NCCC[S+](C)C)cs2)cs1)[C@@H](C)O)[C@@H](O[C@@H]1O[C@@H](CO)[C@@H](O)[C@H](O)[C@@H]1O[C@H]1O[C@H](CO)[C@@H](O)[C@H](OC(N)=O)[C@@H]1O)c1c[nH]cn1.[Br-] [BLEOMYCIN A2]
IC50 [1]: Not Active | IC50 (Endothelin-1 receptor): Not Active | IC50 (Cytochrome P450 2E1): Not Active | Ki (Cytochrome P450 2E1): Not Active | IC50 ([2]; cho-k1): Not Active | IC50 [3]: Not Active | IC50 [4]: Not Active | Ki [4]: Not Active

C#C[C@]1(O)CC[C@H]2[C@@H]3CCC4=CC(=O)CC[C@@H]4[C@H]3CC[C@@]21C [NORETHINDRONE]
IC50 [1]: Not Active | IC50 (Endothelin-1 receptor): Not Active | IC50 (Cytochrome P450 2E1): Not Active | Ki (Cytochrome P450 2E1): Not Active | IC50 ([2]; cho-k1): Not Active | IC50 [3]: Not Active | IC50 [4]: Not Active | Ki [4]: Not Active

CC(CN1c2ccccc2Sc2ccccc21)N(C)C (stereo not given) [PROMETHAZINE]
IC50 ([1]; read-out: IC50): 39 nM | Ki ([1]; read-out: Ki): 21 nM | IC50 (Endothelin-1 receptor): Not Active | IC50 (Cytochrome P450 2E1): Not Active | Ki (Cytochrome P450 2E1): Not Active | IC50 ([2]; read-out: IC50): 12 nM | Ki [2]: 6.48 nM | IC50 [3]: Not Active | IC50 [4]: Not Active | Ki [4]: Not Active

COc1cc(NC(C)CCCN)c2ncccc2c1 (stereo not given) [PRIMAQUINE]
IC50 [1]: Not Active | IC50 (Endothelin-1 receptor): Not Active | IC50 (Cytochrome P450 2E1): Not Active | Ki (Cytochrome P450 2E1): Not Active | IC50 ([2]; cho-k1): Not Active | IC50 [3]: Not Active | IC50 [4]: Not Active | Ki [4]: Not Active

CCCCCCNC(=O)n1cc(F)c(=O)[nH]c1=O [CARMOFUR]
IC50 [1]: Not Active | IC50 (Endothelin-1 receptor): Not Active | IC50 (Cytochrome P450 2E1): Not Active | Ki (Cytochrome P450 2E1): Not Active | IC50 ([2]; cho-k1): Not Active | IC50 [3]: Not Active | IC50 [4]: Not Active | Ki [4]: Not Active

O=c1[nH]c2ccccc2c2ccccc12
IC50 [1]: Not Active | IC50 (Endothelin-1 receptor): Not Active | IC50 (Cytochrome P450 2E1): Not Active | Ki (Cytochrome P450 2E1): Not Active | IC50 ([2]; cho-k1): Not Active | IC50 [3]: Not Active | IC50 [4]: Not Active | Ki [4]: Not Active

C=C(Cl)Cl [1,1-DICHLOROETHENE]
IC50 [1]: Not Active | IC50 (Endothelin-1 receptor): Not Active | IC50 (Cytochrome P450 2E1): Not Active | Ki (Cytochrome P450 2E1): Not Active | IC50 ([2]; cho-k1): Not Active | IC50 [3]: Not Active | IC50 [4]: Not Active | Ki [4]: Not Active

CC(=O)[C@]1(O)Cc2c(O)c3c(c(O)c2[C@@H](O[C@H]2C[C@H](N)[C@H](O)[C@H](C)O2)C1)C(=O)c1ccccc1C3=O [IDARUBICIN]
IC50 [1]: Not Active | IC50 (Endothelin-1 receptor): Not Active | IC50 (Cytochrome P450 2E1): Not Active | Ki (Cytochrome P450 2E1): Not Active | IC50 ([2]; cho-k1): Not Active | IC50 [3]: Not Active | IC50 [4]: Not Active | Ki [4]: Not Active

Oc1ccccc1 [PHENOL]
IC50 [1]: Not Active | IC50 (Endothelin-1 receptor): Not Active | IC50 (Cytochrome P450 2E1): Not Active | Ki (Cytochrome P450 2E1): Not Active | IC50 ([2]; cho-k1): Not Active | IC50 [3]: Not Active | IC50 [4]: Not Active | Ki [4]: Not Active

O=C(Nc1ccc(Cl)c(Cl)c1)c1cc(Cl)cc(Cl)c1O [3,3',4',5-TETRACHLOROSALICYLANILIDE]
IC50 [1]: Not Active | IC50 (Endothelin-1 receptor): Not Active | IC50 (Cytochrome P450 2E1): Not Active | Ki (Cytochrome P450 2E1): Not Active | IC50 ([2]; cho-k1): Not Active | IC50 [3]: Not Active | IC50 [4]: Not Active | Ki [4]: Not Active

CC(=O)Nc1ccc2c(c1)Cc1ccccc1-2 [2-ACETYLAMINOFLUORENE]
IC50 [1]: Not Active | IC50 (Endothelin-1 receptor): Not Active | IC50 (Cytochrome P450 2E1): Not Active | Ki (Cytochrome P450 2E1): Not Active | IC50 ([2]; read-out: IC50): 2140 nM | Ki [2]: 1120 nM | IC50 [3]: Not Active | IC50 [4]: Not Active | Ki [4]: Not Active

C[N+](C)(C)CCOC(N)=O.[Cl-] [CARBACHOL]
IC50 [1]: Not Active | IC50 (Endothelin-1 receptor): Not Active | IC50 (Cytochrome P450 2E1): Not Active | Ki (Cytochrome P450 2E1): Not Active | IC50 ([2]; cho-k1): Not Active | IC50 [3]: Not Active | IC50 [4]: Not Active | Ki [4]: Not Active

Oc1ncnc2[nH]ncc12 [ALLOPURINOL]
IC50 [1]: Not Active | IC50 (Endothelin-1 receptor): Not Active | IC50 (Cytochrome P450 2E1): Not Active | Ki (Cytochrome P450 2E1): Not Active | IC50 ([2]; cho-k1): Not Active | IC50 [3]: Not Active | IC50 [4]: Not Active | Ki [4]: Not Active
